Results taken from patent US20070049593A1 (priority 2004, published 2007).
pIC50: −log10 of the molar value. Structures can show the parent of a compound that is named as a salt.

These compounds were tested against T1, HCV polymerase (Hepatitis C virus genotype 1b, UniProt P26663) (assay: biochemical).
T1 construct: a region encoding NS5B (J Virol 1991 March, 65(3), 1105-13, 544 amino acids after deletion of 47 amino acids on the C-terminal); 6xHis (C); made in house; host or cells: Escherichia coli
Set-up: species or system HCV BK strain
Summary of the method: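 Recombinant HCV BK-strain NS5B (C-terminal 47 aa deleted, His6-tagged, E. coli), 0.5 μg/ml, run with 5 μg/ml in vitro-transcribed RNA template (polyU/3′X), ATP/GTP/CTP 50 μM, UTP 2 μM plus [3H]UTP, pH 7.5, 25° C, 90 min. TCA-precipitated RNA counted by scintillation; IC50 from activity with vs without compound.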

T1 sequence (P26663 2420-2963): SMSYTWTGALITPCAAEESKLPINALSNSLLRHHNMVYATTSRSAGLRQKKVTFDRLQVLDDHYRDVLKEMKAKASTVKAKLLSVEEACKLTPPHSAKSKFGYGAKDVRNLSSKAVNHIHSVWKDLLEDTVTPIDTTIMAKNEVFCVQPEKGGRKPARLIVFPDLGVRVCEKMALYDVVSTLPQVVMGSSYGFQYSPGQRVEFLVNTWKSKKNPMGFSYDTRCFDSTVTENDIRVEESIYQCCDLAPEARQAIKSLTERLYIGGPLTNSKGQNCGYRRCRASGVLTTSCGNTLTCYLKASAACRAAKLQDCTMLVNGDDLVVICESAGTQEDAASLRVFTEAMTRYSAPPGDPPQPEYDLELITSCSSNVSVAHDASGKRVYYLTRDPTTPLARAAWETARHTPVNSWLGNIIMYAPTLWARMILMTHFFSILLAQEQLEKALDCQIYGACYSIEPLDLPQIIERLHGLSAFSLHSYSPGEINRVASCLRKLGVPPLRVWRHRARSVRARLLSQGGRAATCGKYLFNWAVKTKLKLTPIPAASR

SMILES | pIC50
O=C(O)c1ccc2c(C3CCCCC3)c3n(c2c1)CCOc1c-3cccc1N(CCc1ccccc1)CCN1CCCCC1 [Example 2-221, 12-cyclohexyl-4-{N-phenethyl-N-[2-(piperidin-1-yl)ethyl]amino}-6,7-dihydro-5-oxa-7a-azadibenzo[a,e]azulene-9-carboxylic acid] | > 7.00
CC(C)CN1CCCC(CCN2CCn3c(c(C4CCCCC4)c4ccc(C(=O)O)cc43)-c3ccc(Cl)cc32)C1 (stereo not drawn) [Example 1-263, 3-chloro-13-cyclohexyl-5-[2-(1-isobutylpiperidin-3-yl)ethyl]-6,7-dihydro-5H-benzo[5,6][1,4]diazepino[7,1-a]indole-10-carboxylic acid dihydrochloride] | > 7.00
O=C(O)c1ccc2c(C3CCCCC3)c3n(c2c1)CCN(Cc1cccnc1)c1ccccc1-3 [Example 1-135, 13-cyclohexyl-5-(pyridin-3-ylmethyl)-6,7-dihydro-5H-benzo[5,6][1,4]diazepino[7,1-a]indole-10-carboxylic acid dihydrochloride] | > 7.00
O=C(O)c1ccc2c(C3CCCCC3)c3n(c2c1)CCOc1cccc(F)c1-3 [Example 2-484, 12-cyclohexyl-1-fluoro-6,7-dihydro-5-oxa-7a-azadibenzo[a,e]azulene-9-carboxylic acid] | > 7.00
CCN(CCCN1CCn2c(c(C3CCCCC3)c3ccc(C(=O)O)cc32)-c2ccc(Cl)cc21)CCOC [Example 1-431, 3-chloro-13-cyclohexyl-5-{3-[N-ethyl-N-(2-methoxyethyl)amino]propyl}-6,7-dihydro-5H-benzo[5,6][1,4]diazepino[7,1-a]indole-10-carboxylic acid dihydrochloride] | > 7.00
O=C(O)c1ccc2c(C3CCCCC3)c3n(c2c1)CCN(CCN1CCCOCC1)c1cc(F)c(F)cc1-3 [Example 1-550, 13-cyclohexyl-2,3-difluoro-5-[2-(1,4-oxazepan-4-yl)ethyl]-6,7-dihydro-5H-benzo[5,6][1,4]diazepino[7,1-a]indole-10-carboxylic acid dihydrochloride] | > 7.00
O=C(O)c1ccc2c(C3CCCCC3)c3n(c2c1)CCOc1c(-c2ccccc2)cccc1-3 [Example 2-273, 12-cyclohexyl-4-phenyl-6,7-dihydro-5-oxa-7a-azadibenzo[a,e]azulene-9-carboxylic acid] | > 7.00
Cc1ccc2c(c1)N(CCN1CCCCC1)CCn1c-2c(C2CCCCC2)c2ccc(C(=O)O)c(C)c21 [Example 1-554, 13-cyclohexyl-3,9-dimethyl-5-[2-(piperidin-1-yl)ethyl]-6,7-dihydro-5H-benzo[5,6][1,4]diazepino[7,1-a]indole-10-carboxylic acid dihydrochloride] | > 7.00
Cn1c(CNC(=O)c2ccc3c(C4CCCCC4)c4n(c3c2)CCOc2ccccc2-4)nc2ccccc21 [Example 2-249, N-(1-methyl-1H-benzimidazol-2-ylmethyl)-12-cyclohexyl-6,7-dihydro-5-oxa-7a-azadibenzo[a,e]azulene-9-carboxamide] | > 7.00
Cc1ccc2c(c1)N(CCN1CCCCCC1)CCn1c-2c(C2CCCCC2)c2ccc(C(=O)O)cc21 [Example 1-218, 5-[2-(azepan-1-yl)ethyl]-13-cyclohexyl-3-methyl-6,7-dihydro-5H-benzo[5,6][1,4]diazepino[7,1-a]indole-10-carboxylic acid dihydrochloride] | > 7.00
CCN1CCCC(OCCN2CCn3c(c(C4CCCCC4)c4ccc(C(=O)O)cc43)-c3ccc(Cl)cc32)C1 (stereo not drawn) [Example 1-400, 3-chloro-13-cyclohexyl-5-[2-(1-ethylpiperidin-3-yloxy)ethyl]-6,7-dihydro-5H-benzo[5,6][1,4]diazepino[7,1-a]indole-10-carboxylic acid dihydrochloride] | > 7.00
CN(C)CCN1CCn2c(c(C3CCCCC3)c3ccc(C(=O)O)cc32)-c2ccc(OCCN3CCOC3=O)cc21 [Example 1-575, 13-cyclohexyl-5-(2-dimethylaminoethyl)-3-[2-(2-oxooxazolidin-3-yl)ethoxy]-6,7-dihydro-5H-benzo[5,6][1,4]diazepino[7,1-a]indole-10-carboxylic acid dihydrochloride] | > 7.00
